Data as given in patent US11219623B2, “Inflammasome inhibition for the treatment of Parkinson's disease, Alzheimer's disease and multiple sclerosis” (University of Kentucky Research Foundation, priority 2015, dated 2022).
In brackets after ≈: the same amount, converted by molar mass. Entries after “also recorded” stand apart in the source; their conditions may differ.

How the values were obtained:
[1] = LogP, partition coefficient in 1-octanol; assay type: physicochemical; settings: 1-octanol partition
[2] = Solubility in water; assay type: physicochemical; settings: aqueous buffer; Water pH 7.2 at 37° C.
[3] = test system: Caspase-1; assay: Alu RNA-induced Caspase-1 activation, primary mouse RPE cells; assay type: cell-based
[4] = test system: IRAK4; assay: Alu RNA-induced IRAK4 phosphorylation, primary mouse RPE cells; assay type: cell-based
[5] = test system: Caspase-1; assay: LPS/ATP-induced Casp-1 activation, primary human RPE cells; assay type: cell-based; settings: 25/100 uM
Excerpt: (§1) The loading control in FIG. 8 is vinculin. Furthermore, as shown, LPS and ATP activate the NLRP3 inflammasome only in combination, thus treatment with one or the other alone is useful as a control for this experiment.

[6] = test system: IRAK4; assay: LPS/ATP-induced IRAK4 phosphorylation, primary human RPE cells; assay type: cell-based; settings: 25/100 uM
Excerpt: as §1

[7] = test system: IL-18; assay: LPS/ATP-induced IL-18 maturation, mouse bone marrow-derived macrophages; assay type: cell-based; settings: 100 uM; cell culture supernatants
[8] = test system: IL-1 beta; assay: Nigericin-induced IL-1 beta maturation, mouse bone marrow-derived macrophages; assay type: cell-based; settings: 100, 250 uM
[9] = test system: Caspase-1; assay: Nigericin-induced Caspase-1 activation, mouse bone marrow-derived macrophages; assay type: cell-based; settings: 100, 250 uM
[10] = test system: IL-1 beta; assay: MSU-induced IL-1 beta secretion from PMA-differentiated THP-1 monocytes, ELISA; assay type: cell-based, human; settings: 25-1000 uM
Excerpt: Human THP-1 monocytes were differentiated into macrophages with PMA.
To illustrate this, human THP-1 monocytes were differentiated into macrophages with PMA. Treatment with MSU increased IL-1 beta secretion compared to non-treated cells. […]

[11] = test system: NLRP3 mRNA; assay: NLRP3 priming (mRNA) induced by Alu RNA, primary human RPE cells; assay type: cell-based; settings: 100 uM; 16 hours; normalized to 18S RNA
Description: Indeed, as provided in the bar graph of FIG. 13, Alu RNA transfection increases NLRP3 mRNA levels in primary human RPE cells at 16 hours, an event termed “priming” (Y-axis) compared to mock (transfection reagent alone).

[12] = biological target: T1, rat P2X7 receptor (Rattus norvegicus, UniProt Q64663); assay: P2X7 cation channel function, patch clamp, HEK293 cells expressing rat P2X7; assay type: cell-based; settings: rat P2X7 in HEK293
T1 construct: expressed in transfected cells; host or cells: HEK293 cells
T1 sequence (Q64663 whole entry): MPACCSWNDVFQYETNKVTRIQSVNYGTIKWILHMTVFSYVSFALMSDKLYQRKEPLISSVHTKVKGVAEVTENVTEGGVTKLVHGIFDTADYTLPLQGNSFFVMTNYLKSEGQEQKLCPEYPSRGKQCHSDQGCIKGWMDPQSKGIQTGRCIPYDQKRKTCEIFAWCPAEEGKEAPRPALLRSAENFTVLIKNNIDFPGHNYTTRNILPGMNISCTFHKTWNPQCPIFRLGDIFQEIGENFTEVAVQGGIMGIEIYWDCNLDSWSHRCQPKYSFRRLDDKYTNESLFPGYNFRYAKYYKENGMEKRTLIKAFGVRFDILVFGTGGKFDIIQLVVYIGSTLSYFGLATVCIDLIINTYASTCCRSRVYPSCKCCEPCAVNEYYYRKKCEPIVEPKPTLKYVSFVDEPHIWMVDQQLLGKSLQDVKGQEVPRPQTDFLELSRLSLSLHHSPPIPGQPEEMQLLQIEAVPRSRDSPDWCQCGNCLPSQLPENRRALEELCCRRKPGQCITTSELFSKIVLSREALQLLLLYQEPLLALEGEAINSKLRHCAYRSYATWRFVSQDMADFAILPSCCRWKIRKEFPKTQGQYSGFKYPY

[13] = test system: HeLa cells; assay: Cytotoxicity of Alu RNA expression plasmid (pAluA), MTS proliferation assay; assay type: cell-based, human; settings: pAluA vs pUC19
Excerpt: Meanwhile, in certain embodiments, […] protects against cytotoxicity induced by plasmid expressing Alu RNA in vitro.

[14] = test system: Alu RNA; assay: Alu RNA levels, Northern blotting, primary human RPE cells; assay type: cell-based
Excerpt: As presented in FIG. 3, primary human RPE cells treated with antisense oligonucleotides targeting DICER1 (Dcr as) (lane 3 (third lane from left)) show increased Alu RNA levels in the nuclear compartment compared to control antisense oligonucleotides (Ctr as) (lane 1 (leftmost)), monitored by Northern blotting using an Alu-specific probe.
For example, primary human RPE cells may be transfected with Alu RNA, with or without d4T. […] U6 (bottom row) is shown as loading control for nuclear fraction in FIG. 4.
And FIG. 45 presents a Northern blot of biotin-UTP-labeled Alu RNA-transfected primary human RPE cells.

[15] = test system: GFP-expressing lentivirus; assay: GFP-expressing lentivirus transduction/replication assay in HeLa cells; assay type: cell-based
Description: All drugs were added at a concentration of 10 μM. Cells were imaged for GFP expression 72 hours after addition of lentivirus. GFP-positive cells per field of view were recorded. n=4-11, error bars S.E.M. Reverse transcription of lentivirus is essential for GFP expression; modified NRTIs should not block reverse transcriptase, whereas NRTIs are known to block reverse transcriptase.
(§2) The present disclosure further provides the results of additional experiments in FIG. 21-FIG. 23.

[16] = test system: mtDNA; assay: mtDNA levels, real-time quantitative PCR, primary mouse RPE cells; assay type: cell-based; settings: normalized to chromosomal DNA, n=4
Excerpt: as §2

[17] = test system: mice; assay: Iron-induced RPE degeneration in mice; assay type: in vivo, mouse; settings: intraperitoneal 25 mg/kg days 1 to 6; read day 7
[18] = test system: mice; assay: Graft-versus-host disease model, mice receiving allogeneic bone marrow and T cells; assay type: in vivo, mouse; settings: vs. 0% in saline treated controls
Excerpt: (§3) To explore the potential therapeutic relevance of NRTIs beyond the Alu-induced model of geographic atrophy (GA), it was hypothesized that if NRTIs function as generic inflammasome inhibitors, then they might be broadly useful in other animal models of disease that are also driven by P2X7.

[19] = NLRP3- and P2X7-driven model of sterile liver inflammation; settings: in vivo
Excerpt: as §3

[20] = test system: IRAK4; assay: Alu RNA-induced IRAK4 phosphorylation, primary human RPE cells
[21] = biological target: T2, human P2X7 receptor (Homo sapiens, UniProt Q99572); settings: 64 μM drug; bzATP 100 μM; n=12
T2 sequence (Q99572 1-595): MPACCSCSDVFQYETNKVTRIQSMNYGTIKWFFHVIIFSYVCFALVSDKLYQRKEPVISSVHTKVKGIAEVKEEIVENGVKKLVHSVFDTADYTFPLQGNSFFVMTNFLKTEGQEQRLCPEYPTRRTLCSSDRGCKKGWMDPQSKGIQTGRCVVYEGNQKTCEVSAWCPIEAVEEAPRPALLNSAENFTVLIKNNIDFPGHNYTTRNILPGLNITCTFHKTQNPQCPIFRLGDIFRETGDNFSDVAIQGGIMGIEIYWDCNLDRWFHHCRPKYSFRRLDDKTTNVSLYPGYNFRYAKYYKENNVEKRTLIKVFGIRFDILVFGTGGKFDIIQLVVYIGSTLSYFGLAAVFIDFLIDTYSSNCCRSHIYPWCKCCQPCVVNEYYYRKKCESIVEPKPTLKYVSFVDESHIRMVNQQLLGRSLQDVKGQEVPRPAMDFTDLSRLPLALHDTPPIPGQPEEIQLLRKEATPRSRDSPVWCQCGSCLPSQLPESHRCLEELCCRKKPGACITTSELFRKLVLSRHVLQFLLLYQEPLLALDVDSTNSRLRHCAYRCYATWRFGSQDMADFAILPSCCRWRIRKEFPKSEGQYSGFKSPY

Cc1cn([C@H]2C=C[C@@H](CO)O2)c(=O)[nH]c1=O [d4T, 2′3′ dideoxythymidine]
logP [1]: -0.23 | solubility [2]: 106 mg/mL (≈ 473 mM) | Caspase 1 cleavage to active 20 kDa form induced by Alu RNA [3]: prevents Caspase 1 cleavage | IRAK4 phosphorylation induced by Alu RNA [4]: blocks phosphorylation of IRAK4 | Casp-1 activation induced by LPS/ATP [5]: blocks Casp-1 activation | IRAK4 phosphorylation induced by LPS/ATP [6]: blocks | IL-18 maturation induced by LPS/ATP [7]: inhibit | IL-1 beta maturation (18 and 22 kDa forms) induced by nigericin [8]: inhibits IL-1 beta maturation | Caspase-1 activation (active p20 band) induced by nigericin [9]: inhibits | IL-1beta secretion induced by MSU [10]: did not significantly affect IL-1beta secretion | NLRP3 mRNA levels (priming) induced by Alu RNA [11]: reduces NLRP3 priming | P2X7 cation channel function [12]: did not significantly modulate P2X7 cation channel function | cell death induced by Alu overexpression (viability, MTS) [13]: prevented cell death | Alu RNA levels, nuclear compartment ([14]; cells treated with antisense oligonucleotides targeting DICER1): does not reduce Alu RNA levels | Alu RNA levels after Alu RNA transfection ([14]; nuclear fraction 1, 4, or 24 hours (FIG. 4), biotin-UTP-labeled Alu RNA (FIG. 45)): does not change Alu RNA levels; also recorded: did not reduce Alu RNA levels | lentivirus replication (GFP-positive cells per field) ([15]; 10 μM, 72 hours, MOI 20): blocked lentivirus GFP expression | replication of GFP-expressing lentivirus ([15]; FIG. 22, concentration not given): blocks replication | mtDNA levels [16]: reduces mtDNA levels | Iron-induced RPE degeneration [17]: blocked the development of RPE degeneration | survival [18]: 30-70% | neutrophil migration to the focus of liver injury [19]: reduced neutrophil migration | IRAK4 phosphorylation induced by Alu RNA [20]: blocks phosphorylation of IRAK4 | P2X7-mediated YO-PRO-1 dye uptake induced by bzATP [21]: inhibited
